Reference: patent US7884107B2, “Substituted piperidines that increase P53 activity and the uses thereof” (Merck, priority 2006, dated 2011)

Biological target: HDM2 protein (Homo sapiens, UniProt Q00987)
Assay: fluorescence polarization screening assay (FP)
Type: binding
Details: inhibitory concentration that achieves 50% of maximal activity

Sequence of HDM2 protein (Q00987 whole entry): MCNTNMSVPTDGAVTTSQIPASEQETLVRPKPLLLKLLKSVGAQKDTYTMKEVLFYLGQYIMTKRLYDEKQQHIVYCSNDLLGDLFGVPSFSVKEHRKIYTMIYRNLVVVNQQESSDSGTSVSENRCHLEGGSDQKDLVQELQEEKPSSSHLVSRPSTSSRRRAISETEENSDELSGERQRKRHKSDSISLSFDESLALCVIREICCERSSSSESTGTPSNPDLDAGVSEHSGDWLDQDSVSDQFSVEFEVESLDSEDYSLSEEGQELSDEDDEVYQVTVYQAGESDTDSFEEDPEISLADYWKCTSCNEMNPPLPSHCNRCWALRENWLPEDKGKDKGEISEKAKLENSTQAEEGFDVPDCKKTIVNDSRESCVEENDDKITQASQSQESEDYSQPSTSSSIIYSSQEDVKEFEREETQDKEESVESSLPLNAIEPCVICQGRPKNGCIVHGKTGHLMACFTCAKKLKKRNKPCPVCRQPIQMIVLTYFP

IC50 [µM]	Structure (SMILES)
0.95	COc1ccccc1N1CCN(C(=O)C2(Oc3ccc(C(F)(F)F)cc3)CCCN(C(=O)c3cnccc3C(F)(F)F)C2)C(C(=O)NCCO)C1 (centres unmarked) [CR]
0.51	CC(=O)Nc1ccccc1N1CCN(C(=O)C2(Oc3ccc(Br)c(F)c3)CCCN(C(=O)c3cnccc3C(F)(F)F)C2)CC1 (centres unmarked) [AU]
